Entries after “also recorded” stand apart in the source; their conditions may differ.
Tests used:
β-amyloid = details: stated as known; cited from earlier work
Aβ40 = Aβ40 (Homo sapiens, UniProt P05067); assay: Competition with fluorescent dye ThT for binding to Aβ40 (in-vitro assay); details: FIG. 1
Method: Competition for fluorescent binding to Aβ40: the inhibition test of competition binding to amyloid was carried out, in which 2 μM Aβ40, 1 μM amyloid fluorescent dye ThT, and 0.47 nM, 0.94 nM, 4.7 nM, 9.4 nM, 47 nM, 94 nM, 470 nM, 940 nM, 4700 nM and 9400 nM of standard compounds (PiB and BTA-1) and the compound of the present invention as the competing compounds were used. The reaction was carried out for 2 hrs at room temperature, which was excited by using Anthos Zenyth 3100 at an excitation wavelength of 485 nm, and then emitted a florescence of 535 nm. The binding rate of ThT to amyloid was set to 1 where no compound of the present invention was added to compete with ThT for binding. The PiB and BTA-1 were used as positive controls, and the binding rate of each concentration of compound was calculated according to the formula: binding rate=(fluorescence intensity with the compound of the present invention/fluorescence intensity without the compound of the present invention). The result is shown in FIG. 1, in which the horizontal axis is the concentration of the competing compound, and the longitudinal axis is the binding rate of ThT.

Sequence of Aβ40 (P05067 672-711 limits assumed): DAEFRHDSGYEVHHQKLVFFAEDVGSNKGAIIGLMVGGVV

SMILES: [11CH3]Nc1ccc(-c2nc3ccc(O)cc3s2)cc1 [PiB]
- affinity to β-amyloid (β-amyloid): high affinity

SMILES: CNc1ccc(-c2nc3ccccc3s2)cc1 [BTA-1]
- affinity to β-amyloid (β-amyloid): high affinity

SMILES: CC(C)c1ccc(N2Cc3ccc(N)cc3C2)cc1 [the compound of the present invention, N-(4-isopropylphenyl)-5-amino-isoindoline]
- binding rate of ThT to amyloid in competition with the compound (Aβ40; 2 μM Aβ40, 1 μM ThT, 0.47 nM to 9400 nM competing compound, 2 hrs at room temperature, excitation 485 nm, emission 535 nm): can compete with the β-amyloid dye thioflavin T (ThT) for binding to amyloid; also recorded: decrease gradually with the increasing concentration of the compound of the present invention
- ThT binding rate compared with PiB and BTA-1 (Aβ40; at a low concentration of competing compound): comparable to that of other known compounds at a low concentration

Reference: patent US9775920B2, “Use of N-(4-isopropylphenyl)-5-amino-isoindoline” (Institute of Nuclear Energy Research, Atomic Energy …, priority 2015, dated 2017)
